From PMC10937556, “Phenolic phytochemistry, in vitro, in silico, in vivo, and mechanistic anti-inflammatory and antioxidant evaluations of Habenaria digitata” (Frontiers in Pharmacology, 2024)
Where a name gives a salt, the structure may show the parent alone.

What was measured:
[1] = H2O2 free radical scavenging activity
Method: The antioxidant potential of isolated compounds was determined using this approach. In a phosphate buffer solution (50 mM, pH 7.40), a solution of H2O2 (2 mM) was produced. The crude extract (0.10 mL) was measured in a test tube and diluted to 0.40 mL using phosphate buffer. Thereafter, H2O2 (0.60 mL) was added and thoroughly mixed. […] 230 nm was used to measure the absorbance of the sample and the standard ([Sadiq et al., 2018]). For all the crude samples, the exact process was followed. According to the procedure, the inhibition percentage and IC50 values were computed.

[2] = DPPH free radical scavenging assay
Method: The DPPH (anti-radicals) investigation was carried out according to our earlier reported protocols. Initially, a methanolic DPPH solution was prepared with a concentration of 0.1%. Subsequently, 100 µL of this solution was mixed with an equal volume of the test samples (100 µL) in 96-well plates, following a 30-min incubation period at 25°C ± 3 °C in the dark. Solutions with concentrations ranging from […] were prepared. Five concentrations of 1,000, 500, 250, 125, and 62.5 µM of the Trolox methanolic solution ([…]) were formed. A color reduction in DPPH was observed after incubation; a microplate reader was used, and absorbance was measured at 540 nm ([Mahnashi et al., 2022a]; [Huneif et al., 2022]). The percentage of scavenging was determined by the formula: Scavenging effect %=control absorbance−sample absorbance/control absorbance×100.

[3] = ABTS free radical scavenging assay
Method: The ABTS anti-radicals’ analysis was carried out according to [Shah et al. (2015)]. The ABTS solution was prepared by dissolving ABTS salt (192 mg) in distilled H2O, transferred to a flask (50 mL), and volume was adjusted. Thereafter, 1 mL of the preceding solution was added to 17 µL of K₂S₂O₈ (140 mM) and placed in the dark for 24 h s. The experiment’s ultimate ABTS dilution was achieved by mixing 1 mL of the reaction mixture with 50 mL of methanol. The ABTS solution (190 µL) was mixed with the sample solution (10 µL) and added to 96-well plates, which were then incubated at room temperature in dark for 2 h. Following incubation, the measurement of ABTS color intensity was conducted using a microplate reader at 734 nm. Positive control solutions were prepared at values of 1,000–62.5 µM. The percentage of ABTS scavenging was determined by using the following equation: % ABTS scavenging=Control−Sample/control×100.

[4] = tested on: carrageenan-induced paw edema; experiment: Carrageenan-induced paw edema; type: in vivo, mice; details: dose 5 mg/kg
Method: Mice of both sexes (25–30 g) were used for in vivo anti-inflammatory activity of test samples on the carrageenan-induced inflammation model ([Munir et al., 2020]). Mice were distributed into five groups, with eight animals in each group, divided at random. Group-I served as the negative control and received DMSO at a dose of 10 mL/kg body weight. Group-II served as a positive control, which received aspirin at a dose of 100 mg/kg body weight. […] Each mouse received 1 percent (w/v) saline solution (0.05 mL) of carrageenan in the sub-planter region after a 30-min interval. The paw edema volume was determined using a plethysmometer (LE 7500-plan lab S.L) at 1–5 h intervals after carrageenan was given. […] The percentages of inhibition of inflammation were calculated using the formula given below: % inhibition=EC−ET/EC×100, where “EC” is the average edema of control and “ET” is the edema of the tested group.

[5] = tested on: prostaglandin E2-induced paw edema; experiment: Prostaglandin E2-induced paw edema; details: 50 mg/kg
Method: (§1) Employing prostaglandin E2, bradykinin, leukotriene, and histamine induced paw edema assays; the potential anti-inflammatory mechanism of the isolated compound was investigated. […] Sub-planter injections of prostaglandin E2 (0.01 mg/mL) or 10 mg/mL leukotriene or bradykinin (20 mg/mL) or 0.1 mL histamine (1 mg/mL) produced paw edema after 1 h. Each mouse’s paw volume was assessed immediately before and after sub-planter injection of various irritants (inflammatory agents) at 1–5 h.

[6] = tested on: leukotriene-induced paw edema; experiment: Leukotriene-induced paw edema; details: standard drug, 3rd hour
Method: as §1

SOD = experiment: In vivo antioxidant: SOD activity in brain, heart, liver; parameters: species or system mice; details: p < 0.05, D-galactose aging mice
[7] = tested on: histamine-induced paw edema; experiment: Histamine-induced paw edema; details: reference drug, 1 h
Method: as §1

With `O=C1O[C@H]([C@@H](O)CO)C(O)=C1O` [AA, ascorbic acid, reference compound] the “H2O2 IC50” value [1] was 02 µg/mL, the H2O2 % inhibition ([1]; 62.5 µg/mL) was 71.73 ± 0.66% and the H2O2 % inhibition ([1]; 125 µg/mL) was 73.70 ± 0.35%. The H2O2 % inhibition ([1]; 250 µg/mL) was 78.07 ± 0.62%, the H2O2 % inhibition ([1]; 500 µg/mL) was 83.01 ± 0.42% and the H2O2 % inhibition ([1]; 1,000 µg/mL) was 87.50 ± 2.26%. For the same compound, the “DPPH IC50” value [2] was 0.47 µg/mL, the DPPH % inhibition ([2]; 62.5 µg/mL) was 81.35 ± 0.18% and the DPPH % inhibition ([2]; 125 µg/mL) was 84.20 ± 0.15%. The DPPH % inhibition ([2]; 250 µg/mL) was 88.42 ± 0.11%, the DPPH % inhibition ([2]; 500 µg/mL) was 93.62 ± 0.17% and the DPPH % inhibition ([2]; 1,000 µg/mL) was 97.53 ± 0.20%. For the same compound, the “ABTS IC50” value [3] was 0.12 µg/mL, the ABTS % inhibition ([3]; 62.5 µg/mL) was 81.12 ± 0.34% and the ABTS % inhibition ([3]; 125 µg/mL) was 84.47 ± 0.49%. For the same compound, the ABTS % inhibition ([3]; 250 µg/mL) was 87.75 ± 0.14%, the ABTS % inhibition ([3]; 500 µg/mL) was 91.59 ± 0.30% and the ABTS % inhibition ([3]; 1,000 µg/mL) was 95.85 ± 0.18%.

In the case of `CC(=O)Oc1ccccc1C(=O)O` [Aspirin, reference compound], the “Percentage inhibition of paw edema” value ([4]; 1 h) is reported as 47.50 ± 1.10 %, the “Percentage inhibition of paw edema” value ([4]; 2 h) is reported as 53.61 ± 1.45 % and the “Percentage inhibition of paw edema” value ([4]; 3 h) is reported as 54.24 ± 1.34 %. For the same compound, the “Percentage inhibition of paw edema” value ([4]; 4 h) was 57.90 ± 1.93 %, the “Percentage inhibition of paw edema” value ([4]; 5 h) was 58.62 ± 1.53 % and the “Percentage inhibition of paw edema” value ([4]; 5 h, listed as aspirin) was 58.62%.

For `Cc1ccc(-c2cc(C(F)(F)F)nn2-c2ccc(S(N)(=O)=O)cc2)cc1` [Celecoxib, reference compound], the “Effect on increased PGE2 level” value [5] was “significant reduction”.

With `CC(C)(O)c1ccccc1CC[C@@H](SCC1(CC(=O)O)CC1)c1cccc(/C=C/c2ccc3ccc(Cl)cc3n2)c1` [Montelukast, reference compound] the “Percentage inhibition of leukotriene-induced paw edema” value [6] was 67.02 ± 1.74%.

For `Cc1c(C)c2c(c(C)c1O)CCC(C)(C(=O)O)O2` (stereo not shown) [Trolox, reference compound], the “SOD activity compared to the model group” value (SOD) was “higher”.

In the case of `CN(C)CCC(c1ccc(Cl)cc1)c1ccccn1` (stereo not shown) [chlorpheniramine maleate, reference compound], the “Percentage inhibition of histamine-induced paw edema” value [7] is reported as 71.62 ± 1.16%.
